According to the NIST ThermoML archive (doi:10.1016/j.fluid.2017.12.010):

Test: xn = mol fraction of the nth substance listed
Conditions: Liquid, Vibrating tube method, x1 = 1

CCCCCCCCCC [decane] + CCCCCCCCCCCC
Conditions	mass density [kg/m3]
323.25 K, 30000 kPa	732
323.25 K, 40000 kPa	739
323.25 K, 50000 kPa	745
323.25 K, 60000 kPa	751
323.25 K, 70000 kPa	757
323.25 K, 80000 kPa	762
323.25 K, 90000 kPa	767
333.12 K, 5000 kPa	705
333.12 K, 10000 kPa	710
333.12 K, 20000 kPa	718
333.13 K, 100 kPa	700
333.13 K, 1000 kPa	701
333.13 K, 30000 kPa	726
333.13 K, 80000 kPa	757
333.13 K, 90000 kPa	762
333.13 K, 100000 kPa	767
333.14 K, 40000 kPa	733
333.14 K, 50000 kPa	740
333.14 K, 60000 kPa	746
333.14 K, 70000 kPa	751
343.01 K, 100 kPa	693
343.01 K, 1000 kPa	694
343.01 K, 10000 kPa	703
343.01 K, 20000 kPa	712
343.01 K, 30000 kPa	720
343.01 K, 40000 kPa	727
343.01 K, 50000 kPa	734
343.01 K, 60000 kPa	740
343.02 K, 5000 kPa	698
343.02 K, 70000 kPa	746
343.02 K, 80000 kPa	752
343.02 K, 90000 kPa	757
343.02 K, 100000 kPa	762
352.87 K, 100 kPa	686
352.87 K, 1000 kPa	687
352.87 K, 5000 kPa	691
352.88 K, 10000 kPa	696
352.88 K, 20000 kPa	706
352.88 K, 30000 kPa	714
352.88 K, 40000 kPa	722
352.88 K, 50000 kPa	729
352.88 K, 60000 kPa	735
352.89 K, 70000 kPa	741
352.89 K, 80000 kPa	747
352.89 K, 90000 kPa	753
352.89 K, 100000 kPa	758
362.69 K, 100 kPa	677
362.69 K, 1000 kPa	678
362.7 K, 5000 kPa	683
362.7 K, 10000 kPa	689
362.71 K, 20000 kPa	699
362.71 K, 30000 kPa	708
362.71 K, 40000 kPa	716
362.71 K, 50000 kPa	723
362.71 K, 60000 kPa	730
362.72 K, 70000 kPa	736
362.72 K, 80000 kPa	742
362.72 K, 90000 kPa	747
362.72 K, 100000 kPa	753
